From patent US9926319B2, “Pyridyl piperidines” (MERCK PATENT GMBH, priority 2014, dated 2018)

Tests used:
[1] = CLint (intrinsic clearance) assay, microsomal incubation; assay type: in vitro ADME, Human; settings: NADPH, 37° C., up to 30 min; for microsomal CLint at 0.8 μM: human, liver microsomes, pH 7.4, human liver microsomes 0.5 mg/mL protein
Outline: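 Test compound at 0.8 μM was incubated at 37 °C with liver microsomes at 0.5 mg/mL protein in 0.1 M potassium phosphate pH 7.4 with 1 mM MgCl2, NADPH-started, with no-cofactor controls. Acetonitrile quench at 0, 5, 10, 20 and 30 min, then LC-MS/MS peak-area decline. CLint (μL/min/mg protein) = k·1000/protein concentration.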

[2] = system: Wnt pathway; assay: Cellular assay for Wnt pathway activity (luciferase reporter cell based assay); settings: 24 h, HEK293 luciferase reporter cell line (ER-DSH, TCF dependent promoter), induced with estrogen (1 μM), read-out: 7df3 IC50

| SMILES | microsomal CLint at 0.8 μM [1] | IC50 [2] | Human Clint ([1]; human liver microsomes 0.5 mg/mL protein) |
| --- | --- | --- | --- |
| COCC1(C(N)=O)CCN(c2c(Cl)cncc2-c2ccc3c(c2)CS(=O)(=O)N3C)CC1 [Example 77, 5′-Chloro-4-methoxymethyl-3′-(1-methyl-2,2-dioxo-2,3-dihydro-1H-2l6-benzo[c]isothiazol-5-yl)-3,4,5,6-tetrahydro-2H-[1,4′]bipyridinyl-4-carboxylic acid amide] | 75 µL/min/mg | 0.43 nM |  |
| CC(C)n1cc(-c2ccc(-c3cncc(Cl)c3N3CCC4(CC3)NCNC4=O)cc2)cn1 [Example 78, 8-{3-Chloro-5-[4-(1-isopropyl-1H-pyrazol-4-yl)-phenyl]-pyridin-4-yl}-1,3,8-triaza-spiro[4.5]decan-4-one] | 30 µL/min/mg | 3.8 nM |  |
| Cn1cc(-c2ccc(-c3cncc(F)c3N3CCC4(CC3)CNC(=O)O4)cc2)cn1 [Example 79, 8-{3-Fluoro-5-[4-(1-methyl-1H-pyrazol-4-yl)-phenyl]-pyridin-4-yl}-1-oxa-3,8-diaza-spiro[4.5]decan-2-one] |  | 43 nM | 24 µL/min/mg |
| C#Cc1cncc(-c2ccc3c(c2)CS(=O)(=O)N3C)c1N1CCC2(CCNC2=O)CC1 [Example 81, 8-[3-Ethynyl-5-(1-methyl-2,2-dioxo-2,3-dihydro-1H-2l6-benzo[c]isothiazol-5-yl)-pyridin-4-yl]-2,8-diaza-spiro[4.5]decan-1-one] | 66 µL/min/mg | 0.66 nM |  |
| Cn1ncc2cc(-c3cncc(Cl)c3N3CCC4(CC3)NCNC4=O)ccc21 [Example 82, 8-[3-Chloro-5-(1-methyl-1H-indazol-5-yl)-pyridin-4-yl]-1,3,8-triaza-spiro[4.5]decan-4-one] | 47 µL/min/mg | 7.3 nM |  |
| Cn1ncc2cc(-c3cncc(Cl)c3N3CCC(N)(C(N)=O)CC3)ccc21 [Example 83, 4-Amino-5′-chloro-3′-(1-methyl-1H-indazol-5-yl)-3,4,5,6-tetrahydro-2H-[1,4′]bipyridinyl-4-carboxylic acid amide] | 37 µL/min/mg | 7.1 nM |  |
| O=C1CC2(CCN(c3c(Cl)cncc3-c3ccc4c(c3)CS(=O)(=O)N4)CC2)C(=O)N1 [Example 84, 8-[3-Chloro-5-(2,2-dioxo-2,3-dihydro-1H-2l6-benzo[c]isothiazol-5-yl)-pyridin-4-yl]-2,8-diaza-spiro[4.5]decane-1,3-dione] | < 10 µL/min/mg | 15 nM |  |
| CN1c2ccc(-c3cncc(Cl)c3N3CCC(C#N)(CO)CC3)cc2CS1(=O)=O [Example 85, 5′-Chloro-4-hydroxymethyl-3′-(1-methyl-2,2-dioxo-2,3-dihydro-1H-2l6-benzo[c]isothiazol-5-yl)-3,4,5,6-tetrahydro-2H-[1,4′]bipyridinyl-4-carbonitrile] | 51 µL/min/mg | 0.7 nM |  |
| CN1c2ccc(-c3cncc(Cl)c3N3CCC4(CC3)CC(=O)NC4=O)cc2CS1(=O)=O [Example 87, 8-[3-Chloro-5-(1-methyl-2,2-dioxo-2,3-dihydro-1H-2l6-benzo[c]isothiazol-5-yl)-pyridin-4-yl]-2,8-diaza-spiro[4.5]decane-1,3-dione] | 13 µL/min/mg | 0.16 nM |  |
| Cn1cc(-c2ccc(-c3cncc(Cl)c3N3CCC4(CC3)NCNC4=O)cc2)cn1 [Example 88, 8-{3-Chloro-5-[4-(1-methyl-1H-pyrazol-4-yl)-phenyl]-pyridin-4-yl}-1,3,8-triaza-spiro[4.5]decan-4-one] | < 10 µL/min/mg | 3.2 nM |  |
| Cn1cc(-c2ccc(-c3cncc(Cl)c3N3CCC4(CCNC4=O)CC3)cc2)cn1 [Example 89, 8-{3-Chloro-5-[4-(1-methyl-1H-pyrazol-4-yl)-phenyl]-pyridin-4-yl}-2,8-diaza-spiro[4.5]decan-1-one] | 83 µL/min/mg | 6.2 nM |  |
| O=C1CC2(CCN(c3c(Cl)cncc3-c3ccc(N4CCOCC4)cc3)CC2)C(=O)N1 [Example 90, 8-[3-Chloro-5-(4-morpholin-4-yl-phenyl)-pyridin-4-yl]-2,8-diaza-spiro[4.5]decane-1,3-dione] | 66 µL/min/mg | 8.8 nM |  |
| Cn1cc2cc(-c3cncc(Cl)c3N3CCC4(CCNC4=O)CC3)ccc2n1 [Example 92, 8-[3-Chloro-5-(2-methyl-2H-indazol-5-yl)-pyridin-4-yl]-2,8-diaza-spiro[4.5]decan-1-one] | 33 µL/min/mg | 14 nM |  |
| O=C1CCc2cc(-c3cncc(Cl)c3N3CCC4(CCNC4=O)CC3)cnc2N1 [Example 93, 6-[5-Chloro-4-(1-oxo-2,8-diaza-spiro[4.5]dec-8-yl)-pyridin-3-yl]-3,4-dihydro-1H-[1,8]naphthyridin-2-one] | 48 µL/min/mg | 34 nM |  |
| CC(C)n1cc2cc(-c3cncc(Cl)c3N3CCC4(CC3)CNC(=O)O4)ccc2n1 [Example 94, 8-[3-Chloro-5-(2-isopropyl-2H-indazol-5-yl)-pyridin-4-yl]-1-oxa-3,8-diaza-spiro[4.5]decan-2-one] | < 10 µL/min/mg | 28 nM |  |
| CCn1cc2cc(-c3cncc(Cl)c3N3CCC4(CC3)CNC(=O)O4)ccc2n1 [Example 95, 8-[3-Chloro-5-(2-ethyl-2H-indazol-5-yl)-pyridin-4-yl]-1-oxa-3,8-diaza-spiro[4.5]decan-2-one] | < 10 µL/min/mg | 4.5 nM |  |
| C[C@@H]1NC(=O)OC12CCN(c1c(Cl)cncc1-c1ccc3c(c1)CS(=O)(=O)N3C)CC2 [Example 98, (S)-8-[3-Chloro-5-(1-methyl-2,2-dioxo-2,3-dihydro-1H-2l6-benzo[c]isothiazol-5-yl)-pyridin-4-yl]-4-methyl-1-oxa-3,8-diaza-spiro[4.5]decan-2-one] | 35 µL/min/mg | 4.3 nM |  |
| C[C@H]1NC(=O)OC12CCN(c1c(Cl)cncc1-c1ccc3c(c1)CS(=O)(=O)N3C)CC2 [Example 99, (R)-8-[3-Chloro-5-(1-methyl-2,2-dioxo-2,3-dihydro-1H-2l6-benzo[c]isothiazol-5-yl)-pyridin-4-yl]-4-methyl-1-oxa-3,8-diaza-spiro[4.5]decan-2-one] | 39 µL/min/mg | 5.2 nM |  |
| C[C@H]1NC(=O)OC12CCN(c1c(Cl)cncc1-c1ccc(-c3cnn(C)c3)cc1)CC2 [Example 100, (R)-8-{3-Chloro-5-[4-(1-methyl-1H-pyrazol-4-yl)-phenyl]-pyridin-4-yl}-4-methyl-1-oxa-3,8-diaza-spiro[4.5]decan-2-one] | 31 µL/min/mg | 37 nM |  |
